The subject of test [1] is U-87 MG human glioblastoma. The test is described as follows: U87 MG CCK-8 proliferation assay. Format: cell-based. The note with it: Homo sapiens, U-87 MG, 72 h, U-87 MG cells, read-out: U87MG CCK-8. A digest of the protocol: (§1)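 Cells grown per ATCC recommendations were treated with 3-fold serial compound dilutions from 20 μM to 1.02 nM. CCK-8 absorbance was converted to % inhibition against DMSO-treated cells, with cell-free medium containing DMSO as the blank.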
A general note: Tetrazolium dyes change colour on reduction, which living cells bring about.

For another test, the target named is T1, HSP90α protein (Homo sapiens, UniProt P07900).
T1 construct: purchased BPS Bioscience #50298
The test is described as follows: HSP90α-binding FP (BODIPY) assay. The note with it: FP competition with BODIPY-labeled RNK04010. As for the experimental part:
Binding of test compounds to HSP90α protein was measured by fluorescent polarization (FP) using the HSP90α (N-terminal) Assay Kit (BPS Bioscience, #50298), following the manufacturer's instructions, except as noted. Fluorescently labeled HSP90-binding compounds, either the provided FITC-geldanamycin (5 nM final concentration) or RNK04010, a triazolone-based HSP90 binding small molecule labeled with BODIPY through a piperazine-phenyl linker (5 nM final concentration) were employed. A 2.5-fold serial dilution of each test compound ranging from 20 μM to 5.2 nM was assayed for binding to HSP90α. After the final step of adding HSP90α protein to each assay well, plates were mixed by brief shaking, incubated at 25° C. for 120 min for FITC-geldanamycin or 300 min for RNK04010, and fluorescence was measured using a PerkinElmer EnVision Plate Reader.

In test [2] the test system is MV-4-11 human acute myeloid leukemia. Put plainly: MV-4-11 CCK-8 proliferation assay. Format: cell-based. The note with it: Homo sapiens, MV4-11; MV-4-11 cells, 72 hr. In outline:
as §1

Regarding `CCOc1cc(N2CCC(C(=O)N3CCC(CN4CCN(Cc5ccc(-n6c(C(=O)NC(CC)CC)nnc6-c6cc(CC)c(O)cc6O)cc5)CC4)CC3)CC2)ccc1Nc1ncc2c(n1)N(S(C)(=O)=O)c1ccccc1C(=O)N2C` [Compound 084, 4-(4-((4-((1-(1-(3-ethoxy-4-((5-methyl-11-(methylsulfonyl)-6-oxo-6,11-dihydro-5H-benzo[e]pyrimido[5,4-b][1,4]diazepin-2-yl)amino)phenyl)piperidine-4-carbonyl)piperidin-4-yl)methyl)piperazin-1-yl)methyl)phenyl)-5-(5-ethyl-2,4-dihydroxyphenyl)-N-(pentan-3-yl)-4H-1,2,4-triazole-3-carboxamide], the values for the EC50 in test [1] and in test [2] were 100 to 1000 nM and below 100 nM, respectively. Further, the 50% inhibitory concentration (IC50) (usually the concentration at which inhibition is half-maximal) at HSP90α protein fell in the range of 100 to 1000 nM.
As to `CCOc1cc(N2CCC(C(=O)N3CCC(CN4CCN(Cc5ccc(-n6c(O)nnc6-c6cc(CC)c(O)cc6O)cc5F)CC4)CC3)CC2)ccc1Nc1ncc2c(n1)N(C)c1ccccc1C(=O)N2C` [Compound 019, 2-((2-ethoxy-4-(4-(4-((4-(4-(3-(5-ethyl-2,4-dihydroxyphenyl)-5-hydroxy-4H-1,2,4-triazol-4-yl)-2-fluorobenzyl)piperazin-1-yl)methyl)piperidine-1-carbonyl)piperidin-1-yl)phenyl)amino)-5,11-dimethyl-5,11-dihydro-6H-benzo[e]pyrimido[5,4-b][1,4]diazepin-6-one], the EC50 was 100 to 1000 nM in test [1] and below 100 nM in test [2]. In addition, the IC50 at HSP90α protein lay in the range of 100 to 1000 nM.
In the case of `CCOc1cc(N2CCC(C(=O)NCCCNC(=O)O[C@H]3CC[C@H](Nc4cc(-n5nc(C(F)(F)F)c6c5CC(C)(C)CC6=O)ccc4C(N)=O)CC3)CC2)ccc1Nc1ncc2c(n1)N(S(C)(=O)=O)c1ccccc1C(=O)N2C` [Compound 095, (1R,4R)-4-((2-carbamoyl-5-(6,6-dimethyl-4-oxo-3-(trifluoromethyl)-4,5,6,7-tetrahydro-1H-indazol-1-yl)phenyl)amino)cyclohexyl (3-(1-(3-ethoxy-4-((5-methyl-11-(methylsulfonyl)-6-oxo-6,11-dihydro-5H-benzo[e]pyrimido[5,4-b][1,4]diazepin-2-yl)amino)phenyl)piperidine-4-carboxamido)propyl)carbamate], the EC50 was above 1000 nM in test [1] and 100 to 1000 nM in test [2]. The same molecule gave an IC50 at HSP90α protein above 1000 nM.
In the case of `CCOc1cc(N2CCC(C(=O)N3CCC(Cc4ccc(CN(C)Cc5ccc(-n6c(C(=O)NCC(F)(F)F)nnc6-c6cc(C(C)C)c(O)cc6O)cc5)cc4)CC3)CC2)ccc1Nc1ncc2c(n1)N(S(C)(=O)=O)c1ccccc1C(=O)N2C` [Compound 076, 5-(2,4-dihydroxy-5-isopropylphenyl)-4-(4-(((4-((1-(1-(3-ethoxy-4-((5-methyl-11-(methylsulfonyl)-6-oxo-6,11-dihydro-5H-benzo[e]pyrimido[5,4-b][1,4]diazepin-2-yl)amino)phenyl)piperidine-4-carbonyl)piperidin-4-yl)methyl)benzyl)(methyl)amino)methyl)phenyl)-N-(2,2,2-trifluoroethyl)-4H-1,2,4-triazole-3-carboxamide], the EC50 in test [1] was above 1000 nM; in test [2] it was 100 to 1000 nM. This molecule also showed an IC50 at HSP90α protein above 1000 nM.
Consider `CCOc1cc(N2CCC(C(=O)N3CCC(N4CCN(Cc5ccc(-n6c(O)nnc6-c6cc(C(C)C)c(O)cc6O)cc5)CC4)CC3)CC2)ccc1Nc1ncc2c(n1)N(S(C)(=O)=O)c1ccccc1C(=O)N2C` [Compound 064, 2-((4-(4-(4-(4-(4-(3-(2,4-dihydroxy-5-isopropylphenyl)-5-hydroxy-4H-1,2,4-triazol-4-yl)benzyl)piperazin-1-yl)piperidine-1-carbonyl)piperidin-1-yl)-2-ethoxyphenyl)amino)-5-methyl-11-(methylsulfonyl)-5,11-dihydro-6H-benzo[e]pyrimido[5,4-b][1,4]diazepin-6-one], for which the EC50 in test [1] and in test [2] was below 100 nM in each case. Besides, the concentration for half-maximal inhibition (IC50) at HSP90α protein is below 100 nM.
As to `CCOc1cc(N2CCC(C(=O)N3CCN(Cc4ccc(-n5c(O)nnc5-c5cc(C(C)C)c(O)cc5O)cc4)[C@@H](C)C3)CC2)ccc1Nc1ncc2c(n1)N(C)c1ccccc1C(=O)N2C` [Compound 055, (S)-2-((4-(4-(4-(4-(3-(2,4-dihydroxy-5-isopropylphenyl)-5-hydroxy-4H-1,2,4-triazol-4-yl)benzyl)-3-methylpiperazine-1-carbonyl)piperidin-1-yl)-2-ethoxyphenyl)amino)-5,11-dimethyl-5,11-dihydro-6H-benzo[e]pyrimido[5,4-b][1,4]diazepin-6-one], the EC50 is 100 to 1000 nM in test [1] and below 100 nM in test [2]. At HSP90α protein, the IC50 lay in the range of 100 to 1000 nM.
`CCCc1cc(-c2nnc(C(=O)NCCN3CCCCC3)n2-c2ccc(CN3CCN(CC4CCN(C(=O)C5CCN(c6ccc(Nc7ncc8c(n7)N(S(C)(=O)=O)c7ccccc7C(=O)N8C)c(OCC)c6)CC5)CC4)CC3)cc2)c(O)cc1O` [Compound 093, 5-(2,4-dihydroxy-5-propylphenyl)-4-(4-((4-((1-(1-(3-ethoxy-4-((5-methyl-11-(methylsulfonyl)-6-oxo-6,11-dihydro-5H-benzo[e]pyrimido[5,4-b][1,4]diazepin-2-yl)amino)phenyl)piperidine-4-carbonyl)piperidin-4-yl)methyl)piperazin-1-yl)methyl)phenyl)-N-(2-(piperidin-1-yl)ethyl)-4H-1,2,4-triazole-3-carboxamide]: the EC50 in test [1] was above 1000 nM; in test [2] it was 100 to 1000 nM. The molecule further registered an IC50 at HSP90α protein below 100 nM.
The like results for `CCOc1cc(N2CCC(C(=O)N3CCC(N4CCN(Cc5ccc(-n6c(O)nnc6-c6cc(C(C)C)c(O)cc6O)cc5C(F)(F)F)CC4)CC3)CC2)ccc1Nc1ncc2c(n1)N(S(C)(=O)=O)c1ccccc1C(=O)N2C` [Compound 069, 2-((4-(4-(4-(4-(4-(3-(2,4-dihydroxy-5-isopropylphenyl)-5-hydroxy-4H-1,2,4-triazol-4-yl)-2-(trifluoromethyl)benzyl)piperazin-1-yl)piperidine-1-carbonyl)piperidin-1-yl)-2-ethoxyphenyl)amino)-5-methyl-11-(methylsulfonyl)-5,11-dihydro-6H-benzo[e]pyrimido[5,4-b][1,4]diazepin-6-one] were, in that order, 100 to 1000 nM, below 100 nM and 100 to 1000 nM.
`CCOc1cc(N2CCC(C(=O)NCc3ccc(-n4c(O)nnc4-c4cc(CC)c(O)cc4O)cc3C(F)(F)F)CC2)ccc1Nc1ncc2c(n1)N(S(C)(=O)=O)c1ccccc1C(=O)N2C` [Compound 089, 1-(3-ethoxy-4-((5-methyl-11-(methylsulfonyl)-6-oxo-6,11-dihydro-5H-benzo[e]pyrimido[5,4-b][1,4]diazepin-2-yl)amino)phenyl)-N-(4-(3-(5-ethyl-2,4-dihydroxyphenyl)-5-hydroxy-4H-1,2,4-triazol-4-yl)-2-(trifluoromethyl)benzyl)piperidine-4-carboxamide]: the EC50 was above 1000 nM in test [1] and 100 to 1000 nM in test [2]. Also, the IC50 at HSP90α protein was 100 to 1000 nM.
`CCOc1cc(N2CCC(C(=O)N3CCC(CN4CCN(C(=O)O[C@H]5CC[C@H](Nc6cc(-n7nc(C(F)(F)F)c8c7CC(C)(C)CC8=O)ccc6C(N)=O)CC5)CC4)CC3)CC2)ccc1Nc1ncc2c(n1)N(S(C)(=O)=O)c1ccccc1C(=O)N2C` [Compound 117, (1R,4R)-4-((2-carbamoyl-5-(6,6-dimethyl-4-oxo-3-(trifluoromethyl)-4,5,6,7-tetrahydro-1H-indazol-1-yl)phenyl)amino)cyclohexyl 4-((1-(1-(3-ethoxy-4-((5-methyl-11-(methylsulfonyl)-6-oxo-6,11-dihydro-5H-benzo[e]pyrimido[5,4-b][1,4]diazepin-2-yl)amino)phenyl)piperidine-4-carbonyl)piperidin-4-yl)methyl)piperazine-1-carboxylate]: the figures for the EC50 in test [1] and in test [2] were above 1000 nM and 100 to 1000 nM, respectively. At HSP90α protein, the half-inhibitory concentration (IC50) is above 1000 nM.
For `CCOc1cc(N2CCC(C(=O)NCCOCCOc3ccc(Nc4ccc(-n5nc(C(F)(F)F)c6c5CC(C)(C)CC6=O)cc4C(N)=O)cc3)CC2)ccc1Nc1ncc2c(n1)N(S(C)(=O)=O)c1ccccc1C(=O)N2C` [Compound 067, N-(2-(2-(4-((2-carbamoyl-4-(6,6-dimethyl-4-oxo-3-(trifluoromethyl)-4,5,6,7-tetrahydro-1H-indazol-1-yl)phenyl)amino)phenoxy)ethoxy)ethyl)-1-(3-ethoxy-4-((5-methyl-11-(methylsulfonyl)-6-oxo-6,11-dihydro-5H-benzo[e]pyrimido[5,4-b][1,4]diazepin-2-yl)amino)phenyl)piperidine-4-carboxamide], the EC50 in test [1] is above 1000 nM; in test [2], 100 to 1000 nM. At HSP90α protein, the IC50 was above 1000 nM.
